Measurements taken from US11999727B2 (Tango Therapeutics, Inc., priority 2020, dated 2024).
Like-named read-outs stand apart in the source and are kept apart here.

Legend:
[1] = test system: HAP1 MTAP-deleted cell line; assay: Viability assay, MTAP-deleted cell line; assay type: cell-based; settings: Homo sapiens
Text: Table 1 additionally indicates IC50 values in a viability assay for the MTAP-deleted cell line (column 10), indicating the effect of treatment with compound on cell survival.

[2] = test system: HAP1 MTAP-intact cell line; assay: SDMA in-cell western assay, HAP1 MTAP-intact; assay type: cell-based; settings: Homo sapiens
Summary of the method: (§1)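 Readout: in-cell western detection of SDMA. Cells: HAP1 expressing endogenous MTAP and an MTAP-null HAP1 counterpart. Output: IC50.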

PRMT5 [3] = target: T1, PRMT5 (Homo sapiens, UniProt O14744); assay: PRMT5 biochemical IC50 assay with MTA as cofactor; settings: PRMT5, MTA as cofactor; read-out: MTA IC50
T1 construct: purchased Viva (custom protein)

PRMT5 [4] = target: T1, PRMT5; assay: PRMT5 biochemical IC50 assay with no cofactor; settings: PRMT5, no cofactor
Text: Table 1 indicates IC50 values (μM) against PRMT5 for exemplary compounds in the presence of SAM as cofactor, with no cofactor, and with MTA as cofactor, respectively (columns 4-6). […] Ki values can be calculated from the IC50 values as described in the Examples section. As detailed in the Examples section, for the assay performed in the presence of SAM, IC50=Ki×1.5 (Ki=IC50/1.5).

PRMT5 [5] = target: T1, PRMT5; assay: PRMT5 biochemical IC50 assay with SAM as cofactor; settings: PRMT5, SAM as cofactor; read-out: SAM IC50
[6] = test system: HAP1 MTAP-deleted cell line; assay: SDMA in-cell western assay, HAP1 MTAP-deleted; assay type: cell-based; settings: for IC50: Homo sapiens; for MTAP intact/deleted ratio: SDMA in-cell western
Summary of the method: as §1

[7] = HAP1, viability assay, MTAP-deleted cell line, read-out: HAP1 MTAP deleted viability
[8] = HAP1, SDMA in-cell western, HAP1 MTAP-intact, read-out: MTAP HAP1 intact IC50
[9] = HAP1, SDMA in-cell western, HAP1 MTAP-deleted, read-out: HAP1 MTAP deleted IC50
[10] = IC50 ratio HAP1 MTAP-intact vs HAP1 MTAP-deleted
[11] = HAP1, SDMA in-cell western, HAP1 MTAP-deleted, read-out: HAP 1 MTAP deleted IC50
[12] = IC50 ratio HAP1 MTAP-intact / HAP1 MTAP-deleted
[13] = HAP1, viability, HAP1 MTAP-deleted cell line, read-out: HAP1 MTAP deleted viability
[14] = read-out: No Cofactor/ rel IC50

T1 sequence (O14744 whole entry): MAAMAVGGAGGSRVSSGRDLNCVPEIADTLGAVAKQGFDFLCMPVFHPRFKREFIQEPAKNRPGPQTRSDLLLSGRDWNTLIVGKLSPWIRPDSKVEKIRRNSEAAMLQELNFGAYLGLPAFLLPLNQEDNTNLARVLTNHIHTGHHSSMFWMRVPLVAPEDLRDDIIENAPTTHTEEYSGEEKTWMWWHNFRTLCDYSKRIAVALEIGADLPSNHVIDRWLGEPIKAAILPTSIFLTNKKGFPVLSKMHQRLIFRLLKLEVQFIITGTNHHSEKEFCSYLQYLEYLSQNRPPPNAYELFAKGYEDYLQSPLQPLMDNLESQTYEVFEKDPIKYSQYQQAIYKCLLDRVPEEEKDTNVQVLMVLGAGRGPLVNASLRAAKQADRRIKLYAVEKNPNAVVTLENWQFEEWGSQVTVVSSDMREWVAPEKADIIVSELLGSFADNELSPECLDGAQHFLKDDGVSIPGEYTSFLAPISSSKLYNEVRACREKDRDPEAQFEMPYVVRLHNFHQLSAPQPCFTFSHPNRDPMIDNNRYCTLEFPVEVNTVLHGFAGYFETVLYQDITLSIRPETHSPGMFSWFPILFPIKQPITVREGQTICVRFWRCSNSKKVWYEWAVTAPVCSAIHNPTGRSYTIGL
T1 sequence (Q9BQA1 whole entry partner): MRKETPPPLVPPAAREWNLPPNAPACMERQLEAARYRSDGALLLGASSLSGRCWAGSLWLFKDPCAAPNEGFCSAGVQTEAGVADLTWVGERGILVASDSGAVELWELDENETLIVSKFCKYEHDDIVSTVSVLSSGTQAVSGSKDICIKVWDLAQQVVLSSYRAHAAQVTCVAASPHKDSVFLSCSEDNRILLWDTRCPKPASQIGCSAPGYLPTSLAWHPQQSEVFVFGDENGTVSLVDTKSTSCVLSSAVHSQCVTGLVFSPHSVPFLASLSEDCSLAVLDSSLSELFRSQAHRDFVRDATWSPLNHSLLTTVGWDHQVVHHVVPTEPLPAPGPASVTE

SMILES | IC50 [2, 8] [nM] | IC50 (PRMT5 [3]) [nM] | IC50 (PRMT5 [4]; read-out: No Cofactor/rel IC50) [nM] | IC50 (PRMT5 [5]) [nM] | IC50 [6, 9] [nM] | IC50 [6, 11] [nM] | IC50 (PRMT5 [4]; [14]) [nM] | IC50 [1, 7] [nM] | MTAP intact/deleted ratio [6, 10] | MTAP intact/deleted ratio [6, 12] | IC50 ([1]; HAP1, viability IC50, MTAP-deleted cell line, read-out: HAP1 MTAP deleted viability) [nM] | IC50 [1, 13] [nM] | IC50 ([1]; HAP1, viability assay, HAP1 MTAP-deleted, read-out: HAP1 MTAP deleted viability) [nM] | IC50 ([1]; HAP1, read-out: HAP1 MTAP deleted viability) [nM] | IC50 ([2]; HAP1, read-out: MTAP HAP1 intact IC50) [nM] | IC50 ([6]; HAP1, read-out: HAP1 MTAP deleted IC50) [nM]
C[C@@H]1CC[C@@H](c2ccc(NS(C)(=O)=O)nc2)N(C(=O)C(=O)Nc2cncc(C(N)=O)c2)C1 (single isomer, unassigned) [Compound 1003] | > 1000 | < 50 | 50 to 500 | 50 to 500 |  | > 1000 |  | > 10000 |  | C (an IC50 ratio of less than 3 fold) |  |  |  |  |  | 
Cc1cc(NC(=O)C(=O)N2C[C@@H](C)CC[C@@H]2c2ccc3sc(C4CCN(CC(F)F)CC4)nc3c2)cnc1N [Compound 1377, N-(6-amino-5-methylpyridin-3-yl)-2-((2R,5S)-2-(2-(1-(2,2-difluoroethyl)piperidin-4-yl)benzo[d]thiazol-5-yl)-5-methylpiperidin-1-yl)-2-oxoacetamide] | 100 to 1000 | < 50 |  | 50 to 500 |  | < 100 | < 50 |  |  | A (an IC50 ratio greater than or equal to 10 fold) |  | < 1000 |  |  |  | 
Cc1cc(NC(=O)C(=O)N2C[C@@H](C)CC[C@@H]2c2ccc(N(C)C3CCN(C)CC3)nc2)cnc1N [Compound 1225, N-(6-Amino-5-methyl-3-pyridyl)-2-[(2R,5S)-5-methyl-2-[6-[methyl-(1-methyl-4-piperidyl)amino]-3-pyridyl]-1-piperidyl]-2-oxo-acetamide] |  | < 50 | < 50 | < 50 |  |  |  |  | A (an IC50 ratio greater than or equal to 10 fold) |  |  |  |  | < 1000 | 100 to 1000 | < 100
Cc1cc(NC(=O)C(=O)N2C[C@H](C)CC[C@H]2c2cscn2)cnc1N (single isomer, unassigned) [Compound 1028] | > 1000 | > 500 | > 500 | > 500 |  | > 1000 |  | > 10000 |  | C (an IC50 ratio of less than 3 fold) |  |  |  |  |  | 
CCc1cc(NC(=O)C(=O)N2C[C@@H](C)CC[C@@H]2c2ccc(N3CCN(C)CC3)cc2)cnc1N (single isomer, unassigned) [Compound 1371] | 100 to 1000 | < 50 |  | 50 to 500 |  | < 100 | < 50 |  |  | A (an IC50 ratio greater than or equal to 10 fold) |  | < 1000 |  |  |  | 
CCc1cc(NC(=O)C(=O)N2C[C@@H](C)CC[C@@H]2c2ccc(N3C[C@H]4CN(C)CC[C@H]4C3)cc2)cnc1N (racemic) [Compound 1287, N-(6-amino-5-ethyl-3-pyridyl)-2-oxo-2-[rac-(2R,5S)-5-methyl-2-[4-[rac-(3aR,7aR)-5-methyl-3,3a,4,6,7,7a-hexahydro-1H-pyrrolo[3,4-c]pyridin-2-yl]phenyl]-1-piperidyl]acetamide] | 100 to 1000 | < 50 |  | 50 to 500 |  | < 100 | < 50 |  |  | A (an IC50 ratio greater than or equal to 10 fold) |  | < 1000 |  |  |  | 
CO[C@H]1C[C@H](c2ccc3scnc3c2)N(C(=O)C(=O)Nc2cnc(N)c(C3CC3)c2)C[C@H]1C (single isomer, unassigned) [Compound 1370] | < 100 | < 50 |  | 50 to 500 |  | < 100 | < 50 |  |  | A (an IC50 ratio greater than or equal to 10 fold) |  | < 1000 |  |  |  | 

Second part, led by results:

IC50 [2, 8] [nM] | IC50 (PRMT5 [3]) [nM] | IC50 (PRMT5 [4]; read-out: No Cofactor/rel IC50) [nM] | IC50 (PRMT5 [5]) [nM] | IC50 [6, 9] [nM] | IC50 [6, 11] [nM] | IC50 (PRMT5 [4]; [14]) [nM] | SMILES | IC50 [1, 7] [nM] | MTAP intact/deleted ratio [6, 10] | MTAP intact/deleted ratio [6, 12] | IC50 ([1]; HAP1, viability IC50, MTAP-deleted cell line, read-out: HAP1 MTAP deleted viability) [nM] | IC50 [1, 13] [nM] | IC50 ([1]; HAP1, viability assay, HAP1 MTAP-deleted, read-out: HAP1 MTAP deleted viability) [nM] | IC50 ([1]; HAP1, read-out: HAP1 MTAP deleted viability) [nM] | IC50 ([2]; HAP1, read-out: MTAP HAP1 intact IC50) [nM] | IC50 ([6]; HAP1, read-out: HAP1 MTAP deleted IC50) [nM]
100 to 1000 | < 50 | < 50 | 50 to 500 | < 100 |  |  | CCc1cc(NC(=O)C(=O)N2C[C@@H](C)CC[C@@H]2c2ccc3sc([C@H]4CCN(C)C(=O)C4)nc3c2)cnc1N (single isomer, unassigned) [Compound 1136] | < 1000 | A (an IC50 ratio greater than or equal to 10 fold) |  |  |  |  |  |  | 
< 100 | < 50 | < 50 | 50 to 500 | < 100 |  |  | CCc1cc(NC(=O)C(=O)N2C[C@@H](C)CC[C@@H]2c2ccc3sc(C(C)(C)N(C)C)nc3c2)cnc1N [Compound 1237, N-(6-amino-5-ethylpyridin-3-yl)-2-((2R,5S)-2-(2-(2-(dimethylamino)propan-2-yl)benzo[d]thiazol-5-yl)-5-methylpiperidin-1-yl)-2-oxoacetamide] | < 1000 | A (an IC50 ratio greater than or equal to 10 fold) |  |  |  |  |  |  | 
> 1000 | 50 to 500 | > 500 | 50 to 500 |  | > 1000 |  | CC(=O)N[C@H]1C[C@H]([C@H]2CC[C@@H](C)CN2C(=O)C(=O)Nc2cnc(N)c(C)c2)C1 (single isomer, unassigned) [Compound 564] |  |  | B (an IC50 ratio greater than or equal to 3 fold but lower than 10 fold) | > 10000 |  |  |  |  | 
< 100 | < 50 |  | 50 to 500 |  | < 100 | < 50 | CCc1cc(NC(=O)C(=O)N2C[C@@H](C)CC[C@@H]2c2ccc3sc(CN(C)C)nc3c2)cnc1N [Compound 1325, N-(6-amino-5-ethylpyridin-3-yl)-2-((2R,5S)-2-(2-((dimethylamino)methyl)benzo[d]thiazol-5-yl)-5-methylpiperidin-1-yl)-2-oxoacetamide] |  |  | A (an IC50 ratio greater than or equal to 10 fold) |  | < 1000 |  |  |  | 
> 1000 | > 500 | > 500 | > 500 | > 1000 |  |  | COc1ncc(NC(=O)C(=O)N2C[C@@H](C)CC[C@@H]2c2ccc(NC(C)=O)cc2)cc1C(N)=O (single isomer, unassigned) [Compound 761] |  |  | C (an IC50 ratio of less than 3 fold) |  |  | > 10000 |  |  | 
> 1000 | < 50 | 50 to 500 | 50 to 500 | 100 to 1000 |  |  | C[C@@H]1CC[C@@H](c2ccc(C#N)cc2)N(C(=O)C(=O)Nc2cncc(C(N)=O)c2)C1 (racemic) [Compound 246, rac-5-{2-[(2R,5S)-2-(4-Cyanophenyl)-5-methylpiperidin-1-yl]-2-oxoacetamido}pyridine-3-carboxamide] | 1000 to 10000 |  | A (an IC50 ratio greater than or equal to 10 fold) |  |  |  |  |  | 
> 1000 | < 50 | 50 to 500 | 50 to 500 | 100 to 1000 |  |  | C[C@@H]1CC[C@@H](c2ccc(F)c(C(F)(F)F)c2)N(C(=O)C(=O)Nc2cncc(C(N)=O)c2)C1 (racemic) [Compound 255, rac-5-{2-[(2R,5S)-2-[4-Fluoro-3-(trifluoromethyl)phenyl]-5-methylpiperidin-1-yl]-2-oxoacetamido}pyridine-3-carboxamide] | 1000 to 10000 |  | A (an IC50 ratio greater than or equal to 10 fold) |  |  |  |  |  | 
> 1000 | 50 to 500 | 50 to 500 | 50 to 500 | 100 to 1000 |  |  | C[C@@H]1CC[C@H](c2ccc(N[C@@H]3CCN(C)C3=O)cc2)N(C(=O)C(=O)Nc2cncc(C(N)=O)c2)C1 (racemic) [Compound 427, 5-[[2-[(2R,5R)-5-Methyl-2-[4-[[(3R)-1-methyl-2-oxo-pyrrolidin-3-yl]amino]phenyl]-1-piperidyl]-2-oxo-acetyl]amino]pyridine-3-carboxamide] | > 10000 |  | A (an IC50 ratio greater than or equal to 10 fold) |  |  |  |  |  | 
100 to 1000 | < 50 |  | 50 to 500 |  | < 100 | 50 to 500 | Cc1cc(NC(=O)C(=O)N2[C@@H](C)CCC[C@H]2c2ccccc2)cnc1N (racemic) [Compound 112, N-(6-amino-5-methyl-3-pyridyl)-2-[rac-(2R,6R)-2-methyl-6-phenyl-1-piperidyl]-2-oxo-acetamide] | 1000 to 10000 |  | B (an IC50 ratio greater than or equal to 3 fold but lower than 10 fold) |  |  |  |  |  | 
> 1000 | 50 to 500 |  | 50 to 500 |  | 100 to 1000 | > 500 | NC(=O)c1cncc(NC(=O)C(=O)N2CCCCC2c2ccccc2)c1 (centres unmarked) [Compound 29, 5-[[2-oxo-2-(2-phenyl-1-piperidyl)acetyl]amino]pyridine-3-carboxamide] | > 10000 |  | A (an IC50 ratio greater than or equal to 10 fold) |  |  |  |  |  | 
